This note sets out measurements from the supplement of paper PMC10307832.

Experiment in all cases: relative viability (nuclei count vs DMSO), 5 days (fraction); higher = more cells survive
Compound in the test “Avagacestat + Bortezomib”: NC(=O)[C@@H](CCC(F)(F)F)N(Cc1ccc(-c2ncon2)cc1F)S(=O)(=O)c1ccc(Cl)cc1 [Avagacestat] + CC(C)C[C@H](NC(=O)[C@H](Cc1ccccc1)NC(=O)c1cnccn1)B(O)O [Bortezomib] (partner 0.002 µM)
An outline of the steps:
(§1)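 Dosing by pin tool came one day after lung cancer cell lines were seeded in 1536-well plates, using either one drug or a fixed anchor-drug dose plus five library-drug doses (not always all listed) in √10 steps. After 5 days, nuclei were counted on 4× images. Relative viability is treated-well nuclei count divided by vehicle-well nuclei count, and values are medians of duplicate plates.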

Compound in the test “Avagacestat + Olaparib”: NC(=O)[C@@H](CCC(F)(F)F)N(Cc1ccc(-c2ncon2)cc1F)S(=O)(=O)c1ccc(Cl)cc1 [Avagacestat] + O=C(c1cc(Cc2n[nH]c(=O)c3ccccc23)ccc1F)N1CCN(C(=O)C2CC2)CC1 [Olaparib] (partner 8 µM)
The method, boiled down:
as §1

Compound in the test “Avagacestat + Alpelisib”: NC(=O)[C@@H](CCC(F)(F)F)N(Cc1ccc(-c2ncon2)cc1F)S(=O)(=O)c1ccc(Cl)cc1 [Avagacestat] + Cc1nc(NC(=O)N2CCC[C@H]2C(N)=O)sc1-c1ccnc(C(C)(C)C(F)(F)F)c1 [Alpelisib] (partner 2 µM)
An outline of the steps:
as §1

Compound in the test “Avagacestat + Pemetrexed”: NC(=O)[C@@H](CCC(F)(F)F)N(Cc1ccc(-c2ncon2)cc1F)S(=O)(=O)c1ccc(Cl)cc1 [Avagacestat] + Nc1nc2[nH]cc(CCc3ccc(C(=O)N[C@@H](CCC(=O)O)C(=O)O)cc3)c2c(=O)[nH]1 [Pemetrexed] (partner 0.2 µM)
An outline of the steps:
as §1

Turning to NCI-H1299, the relative viability in the test with Avagacestat + Bortezomib (first compound 0.08 µM) amounted to 1.03; with Avagacestat + Bortezomib (first compound 0.253 µM), 1.01; with Avagacestat + Bortezomib (first compound 0.8 µM), 1; with Avagacestat + Bortezomib (first compound 2.53 µM), 1.01; in the test with Avagacestat + Bortezomib (first compound 8 µM) it was 0.991; with Avagacestat + Olaparib (first compound 0.08 µM), 0.97. The relative viability with Avagacestat + Olaparib (first compound 0.253 µM) stood at 1.07; in the test with Avagacestat + Olaparib (first compound 0.8 µM) it was 0.975; with Avagacestat + Olaparib (first compound 2.53 µM) it was 0.979; in the test with Avagacestat + Olaparib (first compound 8 µM) it was 0.929; in the test with Avagacestat + Alpelisib (first compound 0.08 µM) it was 1.1; with Avagacestat + Alpelisib (first compound 0.253 µM), 1.18. Further, the relative viability with Avagacestat + Alpelisib (first compound 0.8 µM) was determined as 1.08; in the test with Avagacestat + Alpelisib (first compound 2.53 µM), 1.02; in the test with Avagacestat + Alpelisib (first compound 8 µM), 0.886.
Turning to NCI-H1395, the relative viability stood at 0.463 with Avagacestat + Olaparib (first compound 0.08 µM); 0.475 in the test with Avagacestat + Olaparib (first compound 0.253 µM); 0.516 with Avagacestat + Olaparib (first compound 0.8 µM); 0.359 in the test with Avagacestat + Olaparib (first compound 2.53 µM); 0.435 with Avagacestat + Olaparib (first compound 8 µM); 0.938 in the test with Avagacestat + Alpelisib (first compound 0.08 µM). Moreover, the relative viability with Avagacestat + Alpelisib (first compound 0.253 µM) was determined as 0.996; with Avagacestat + Alpelisib (first compound 0.8 µM), 0.879; in the test with Avagacestat + Alpelisib (first compound 2.53 µM), 1.05; in the test with Avagacestat + Alpelisib (first compound 8 µM) it was 0.943; with Avagacestat + Pemetrexed (first compound 0.08 µM) it was 0.866; with Avagacestat + Pemetrexed (first compound 0.253 µM), 0.954. Besides, the relative viability was found to be 1.08 with Avagacestat + Pemetrexed (first compound 0.8 µM), 0.798 in the test with Avagacestat + Pemetrexed (first compound 2.53 µM) and 0.696 with Avagacestat + Pemetrexed (first compound 8 µM).
Consider NCI-H1648, for which the relative viability with Avagacestat + Olaparib (first compound 0.08 µM) came to 0.678; with Avagacestat + Olaparib (first compound 0.253 µM), 0.806; with Avagacestat + Olaparib (first compound 0.8 µM) it was 0.516; in the test with Avagacestat + Olaparib (first compound 2.53 µM), 0.437; with Avagacestat + Olaparib (first compound 8 µM), 0.534; with Avagacestat + Pemetrexed (first compound 0.08 µM) it was 0.572. For the same cell line, the relative viability in the test with Avagacestat + Pemetrexed (first compound 0.253 µM) was determined as 0.505; with Avagacestat + Pemetrexed (first compound 0.8 µM), 0.451; with Avagacestat + Pemetrexed (first compound 2.53 µM), 0.467; with Avagacestat + Pemetrexed (first compound 8 µM) it was 0.505.
As for NCI-H1650, the relative viability was found to be 0.212 with Avagacestat + Bortezomib (first compound 0.08 µM); 0.232 with Avagacestat + Bortezomib (first compound 0.253 µM); 0.196 with Avagacestat + Bortezomib (first compound 0.8 µM); 0.211 in the test with Avagacestat + Bortezomib (first compound 2.53 µM); 0.21 in the test with Avagacestat + Bortezomib (first compound 8 µM); 0.961 in the test with Avagacestat + Olaparib (first compound 0.08 µM). Further, the relative viability with Avagacestat + Olaparib (first compound 0.253 µM) amounted to 0.893; with Avagacestat + Olaparib (first compound 0.8 µM), 0.86; with Avagacestat + Olaparib (first compound 2.53 µM) it was 0.917; with Avagacestat + Olaparib (first compound 8 µM), 0.936; in the test with Avagacestat + Pemetrexed (first compound 0.08 µM), 0.357; in the test with Avagacestat + Pemetrexed (first compound 0.253 µM), 0.387. Also, the figures for the relative viability with Avagacestat + Pemetrexed (first compound 0.8 µM), with Avagacestat + Pemetrexed (first compound 2.53 µM) and with Avagacestat + Pemetrexed (first compound 8 µM) were 0.365, 0.381 and 0.382, respectively.
On to NCI-H1703, for which the relative viability came out at 0.403 with Avagacestat + Bortezomib (first compound 0.08 µM); 0.422 in the test with Avagacestat + Bortezomib (first compound 0.253 µM); 0.272 in the test with Avagacestat + Bortezomib (first compound 0.8 µM); 0.322 in the test with Avagacestat + Bortezomib (first compound 2.53 µM); 0.318 with Avagacestat + Bortezomib (first compound 8 µM); 0.489 in the test with Avagacestat + Olaparib (first compound 0.08 µM). The relative viability with Avagacestat + Olaparib (first compound 0.253 µM) turned out to be 0.297; in the test with Avagacestat + Olaparib (first compound 0.8 µM), 0.421; with Avagacestat + Olaparib (first compound 2.53 µM) it was 0.264; with Avagacestat + Olaparib (first compound 8 µM), 0.335; with Avagacestat + Alpelisib (first compound 0.08 µM), 0.444; with Avagacestat + Alpelisib (first compound 0.253 µM) it was 0.387. For the same cell line, the results for the relative viability in the test with Avagacestat + Alpelisib (first compound 0.8 µM), in the test with Avagacestat + Alpelisib (first compound 2.53 µM) and in the test with Avagacestat + Alpelisib (first compound 8 µM) were 0.405, 0.378 and 0.385, respectively.
NCI-H1793: the relative viability in the test with Avagacestat + Olaparib (first compound 0.08 µM) stood at 1.04; with Avagacestat + Olaparib (first compound 0.253 µM), 0.601; with Avagacestat + Olaparib (first compound 0.8 µM) it was 1.11; with Avagacestat + Olaparib (first compound 2.53 µM), 0.827; in the test with Avagacestat + Olaparib (first compound 8 µM) it was 0.616; in the test with Avagacestat + Alpelisib (first compound 0.08 µM) it was 0.967. The relative viability in the test with Avagacestat + Alpelisib (first compound 0.253 µM) amounted to 0.777; in the test with Avagacestat + Alpelisib (first compound 0.8 µM) it was 0.822; with Avagacestat + Alpelisib (first compound 2.53 µM) it was 0.769; in the test with Avagacestat + Alpelisib (first compound 8 µM), 0.672; with Avagacestat + Pemetrexed (first compound 0.08 µM), 0.907; with Avagacestat + Pemetrexed (first compound 0.253 µM), 1.03. Also, the relative viability amounted to 1.07 with Avagacestat + Pemetrexed (first compound 0.8 µM), 0.94 with Avagacestat + Pemetrexed (first compound 2.53 µM) and 0.785 with Avagacestat + Pemetrexed (first compound 8 µM).
Turning to NCI-H1944, the relative viability is 0.492 with Avagacestat + Olaparib (first compound 0.08 µM); 0.448 with Avagacestat + Olaparib (first compound 0.253 µM); 0.46 in the test with Avagacestat + Olaparib (first compound 0.8 µM); 0.4 with Avagacestat + Olaparib (first compound 2.53 µM); 0.421 in the test with Avagacestat + Olaparib (first compound 8 µM); 0.874 with Avagacestat + Alpelisib (first compound 0.08 µM). For the same cell line, the relative viability came to 0.857 with Avagacestat + Alpelisib (first compound 0.253 µM); 0.844 with Avagacestat + Alpelisib (first compound 0.8 µM); 0.667 in the test with Avagacestat + Alpelisib (first compound 2.53 µM); 0.758 with Avagacestat + Alpelisib (first compound 8 µM); 0.784 with Avagacestat + Pemetrexed (first compound 0.08 µM); 0.654 with Avagacestat + Pemetrexed (first compound 0.253 µM). The relative viability is 0.613 in the test with Avagacestat + Pemetrexed (first compound 0.8 µM), 0.599 in the test with Avagacestat + Pemetrexed (first compound 2.53 µM) and 0.585 with Avagacestat + Pemetrexed (first compound 8 µM).
Consider NCI-H2170, for which the relative viability in the test with Avagacestat + Olaparib (first compound 0.08 µM) is 0.78; with Avagacestat + Olaparib (first compound 0.253 µM), 0.722; with Avagacestat + Olaparib (first compound 0.8 µM), 0.612; with Avagacestat + Olaparib (first compound 2.53 µM), 0.64; with Avagacestat + Olaparib (first compound 8 µM), 0.582; in the test with Avagacestat + Alpelisib (first compound 0.08 µM), 1.02. Further, the relative viability came to 0.843 with Avagacestat + Alpelisib (first compound 0.253 µM); 0.883 with Avagacestat + Alpelisib (first compound 0.8 µM); 0.751 with Avagacestat + Alpelisib (first compound 2.53 µM); 0.721 with Avagacestat + Alpelisib (first compound 8 µM); 0.258 in the test with Avagacestat + Pemetrexed (first compound 0.08 µM); 0.268 in the test with Avagacestat + Pemetrexed (first compound 0.253 µM). Further, the relative viability with Avagacestat + Pemetrexed (first compound 0.8 µM) worked out at 0.23; with Avagacestat + Pemetrexed (first compound 2.53 µM) it was 0.274; with Avagacestat + Pemetrexed (first compound 8 µM) it was 0.261.
As for NCI-H2342, the relative viability worked out at 0.441 in the test with Avagacestat + Olaparib (first compound 0.08 µM); 0.384 in the test with Avagacestat + Olaparib (first compound 0.253 µM); 0.486 with Avagacestat + Olaparib (first compound 0.8 µM); 0.458 with Avagacestat + Olaparib (first compound 2.53 µM); 0.451 in the test with Avagacestat + Olaparib (first compound 8 µM); 0.849 with Avagacestat + Pemetrexed (first compound 0.08 µM). The relative viability with Avagacestat + Pemetrexed (first compound 0.253 µM) turned out to be 0.803; with Avagacestat + Pemetrexed (first compound 0.8 µM), 0.903; in the test with Avagacestat + Pemetrexed (first compound 2.53 µM) it was 0.725; in the test with Avagacestat + Pemetrexed (first compound 8 µM), 0.782.
Turning to SK-MES-1, the relative viability in the test with Avagacestat + Olaparib (first compound 0.08 µM) came to 0.905; in the test with Avagacestat + Olaparib (first compound 0.253 µM), 0.772; with Avagacestat + Olaparib (first compound 0.8 µM) it was 0.88; with Avagacestat + Olaparib (first compound 2.53 µM) it was 0.667; with Avagacestat + Olaparib (first compound 8 µM), 0.646; in the test with Avagacestat + Alpelisib (first compound 0.08 µM) it was 0.992. For the same cell line, the relative viability with Avagacestat + Alpelisib (first compound 0.253 µM) turned out to be 0.948; in the test with Avagacestat + Alpelisib (first compound 0.8 µM) it was 0.741; in the test with Avagacestat + Alpelisib (first compound 2.53 µM), 0.892; with Avagacestat + Alpelisib (first compound 8 µM), 0.457; in the test with Avagacestat + Pemetrexed (first compound 0.08 µM), 1.08; in the test with Avagacestat + Pemetrexed (first compound 0.253 µM), 1.07. For the same cell line, the relative viability was found to be 1.05 in the test with Avagacestat + Pemetrexed (first compound 0.8 µM), 0.878 in the test with Avagacestat + Pemetrexed (first compound 2.53 µM) and 0.892 with Avagacestat + Pemetrexed (first compound 8 µM).
